Measurements: ChEMBL document CHEMBL3039007, “Structure-based identification of OATP1B1/3 inhibitors” (Mol Pharmacol, 2013)

What was measured:
[1] = biological target: T1, Solute carrier organic anion transporter family member 1B1 (Homo sapiens, UniProt Q9Y6L6); conditions: chinese hamster, cho, 10 µM
T1 sequence (Q9Y6L6 whole entry): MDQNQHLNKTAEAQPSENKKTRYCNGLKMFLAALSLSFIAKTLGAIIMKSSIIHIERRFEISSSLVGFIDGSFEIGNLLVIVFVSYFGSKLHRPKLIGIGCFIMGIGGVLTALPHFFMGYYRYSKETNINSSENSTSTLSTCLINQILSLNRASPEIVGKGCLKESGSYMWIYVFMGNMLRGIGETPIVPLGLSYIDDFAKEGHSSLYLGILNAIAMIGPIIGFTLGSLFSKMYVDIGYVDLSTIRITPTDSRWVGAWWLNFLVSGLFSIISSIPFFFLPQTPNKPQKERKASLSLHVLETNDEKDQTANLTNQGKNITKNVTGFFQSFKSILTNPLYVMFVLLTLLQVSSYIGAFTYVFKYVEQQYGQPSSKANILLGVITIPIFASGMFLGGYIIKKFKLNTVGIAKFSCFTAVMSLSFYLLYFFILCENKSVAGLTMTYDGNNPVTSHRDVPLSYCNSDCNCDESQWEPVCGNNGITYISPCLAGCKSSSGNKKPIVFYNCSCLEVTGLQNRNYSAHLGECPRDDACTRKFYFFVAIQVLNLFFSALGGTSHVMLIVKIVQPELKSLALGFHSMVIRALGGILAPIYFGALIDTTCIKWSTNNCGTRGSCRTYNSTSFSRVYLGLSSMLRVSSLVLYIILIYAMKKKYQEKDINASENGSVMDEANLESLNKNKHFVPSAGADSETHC

[2] = biological target: T2, Solute carrier organic anion transporter family member 1B3 (Homo sapiens, UniProt Q9NPD5); conditions: chinese hamster, cho, 10 µM
T2 sequence (Q9NPD5 whole entry): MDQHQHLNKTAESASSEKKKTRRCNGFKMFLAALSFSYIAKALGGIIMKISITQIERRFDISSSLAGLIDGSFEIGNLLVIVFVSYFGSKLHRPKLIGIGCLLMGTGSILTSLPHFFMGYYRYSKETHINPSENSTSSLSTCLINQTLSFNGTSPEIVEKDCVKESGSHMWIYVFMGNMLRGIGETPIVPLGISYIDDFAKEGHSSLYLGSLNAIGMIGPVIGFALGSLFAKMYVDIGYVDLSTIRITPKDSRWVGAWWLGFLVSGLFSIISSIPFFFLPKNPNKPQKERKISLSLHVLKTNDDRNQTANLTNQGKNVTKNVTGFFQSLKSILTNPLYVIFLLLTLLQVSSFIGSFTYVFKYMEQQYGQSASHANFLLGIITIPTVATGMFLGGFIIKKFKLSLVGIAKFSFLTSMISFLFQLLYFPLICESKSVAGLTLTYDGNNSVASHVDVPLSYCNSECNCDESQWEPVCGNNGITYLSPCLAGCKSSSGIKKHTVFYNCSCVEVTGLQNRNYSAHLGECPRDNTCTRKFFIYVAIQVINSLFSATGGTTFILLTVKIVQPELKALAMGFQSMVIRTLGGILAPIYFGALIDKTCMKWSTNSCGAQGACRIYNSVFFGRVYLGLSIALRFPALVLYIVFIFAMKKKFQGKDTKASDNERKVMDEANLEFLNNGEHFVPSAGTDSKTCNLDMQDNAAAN

SMILES: C=C1c2c(Cl)ccc(O)c2C(=O)C2=C(O)[C@]3(O)C(=O)C(C(N)=O)=C(O)[C@@H](N(C)C)[C@@H]3[C@@H](O)[C@H]12.O=C(O)c1cc(S(=O)(=O)O)ccc1O [MECLOCYCLINE SULFOSALICYLATE]
- residual activity [1]: 122.1%
- residual activity [2]: 107.8%

SMILES: Cc1ccc(Cl)c(Nc2ccccc2C(=O)[O-])c1Cl.O.[Na+] [MECLOFENAMATE SODIUM]
- residual activity [1]: 77.28%
- residual activity [2]: 87.03%

SMILES: COC(=O)C(N)CS.Cl (stereo unspecified) [MECYSTEINE HYDROCHLORIDE]
- residual activity [1]: 97.76%
- residual activity [2]: 99.55%

SMILES: CC(=O)O[C@]1(C(C)=O)CC[C@H]2[C@@H]3C[C@H](C)C4=CC(=O)CC[C@]4(C)[C@H]3CC[C@@]21C [MEDROXYPROGESTERONE ACETATE]
- residual activity [1]: 105.9%
- residual activity [2]: 104.4%

SMILES: CC(=O)[C@H]1CC[C@H]2[C@@H]3C[C@H](C)C4=CC(=O)CC[C@]4(C)[C@H]3[C@@H](O)C[C@]12C [MEDRYSONE]
- residual activity [1]: 86.36%
- residual activity [2]: 90.89%

SMILES: Cc1cccc(Nc2ccccc2C(=O)O)c1C [MEFENAMIC ACID]
- residual activity [1]: 63.23%
- residual activity [2]: 72.63%

SMILES: OC(c1cc(C(F)(F)F)nc2c(C(F)(F)F)cccc12)C1CCCCN1 (stereo unspecified) [MEFLOQUINE]
- residual activity [1]: 161.6%
- residual activity [2]: 112.7%

SMILES: CC(=O)O[C@]1(C(C)=O)CC[C@H]2[C@@H]3C=C(C)C4=CC(=O)CC[C@]4(C)[C@H]3CC[C@@]21C [MEGESTROL ACETATE]
- residual activity [1]: 50.69%
- residual activity [2]: 93.03%

SMILES: COc1ccc2[nH]cc(CCNC(C)=O)c2c1 [MELATONIN]
- residual activity [1]: 71.02%
- residual activity [2]: 91.63%

SMILES: OC[C@H]1O[C@@](CO)(O[C@H]2O[C@H](CO)[C@@H](O)[C@H](O)[C@H]2O)[C@@H](O[C@H]2O[C@H](CO)[C@@H](O)[C@H](O)[C@H]2O)[C@@H]1O [MELEZITOSE]
- residual activity [1]: 99.1%
- residual activity [2]: 96.54%

SMILES: CC12CC3CC(C)(C1)CC(N)(C3)C2.Cl [MEMANTINE HYDROCHLORIDE]
- residual activity [1]: 88.64%
- residual activity [2]: 88.95%

SMILES: CC1=CC(=O)c2ccccc2C1=O [MENADIONE]
- residual activity [1]: 157.5%
- residual activity [2]: 112.1%

SMILES: CC(C)[C@@H]1CC[C@@H](C)CC1=O [MENTHONE]
- residual activity [1]: 96.98%
- residual activity [2]: 100.2%

SMILES: CC(C)[C@@H]1CC[C@@H](C)C[C@H]1OC(=O)c1ccccc1 [MENTHYL BENZOATE]
- residual activity [1]: 100.9%
- residual activity [2]: 101.1%

SMILES: CNc1ccc(C(=O)CC(O)CCC(C)C2OC(=O)CC(O)CC(=O)CC(O)CC(O)CC(O)CC(O)CC3(O)CC(O)C(C(=O)OC)C(CC(O[C@@H]4O[C@H](C)[C@@H](O)[C@H](N)[C@@H]4O)/C=C/C=C/C=C/C=C/C=C/C=C/C=C/C2C)O3)cc1.COC(=O)C1C(O)CC2(O)CC(O)CC(O)CC(O)CC(O)CC(=O)CC(O)CC(=O)OC(C(C)CCC(O)CC(=O)c3ccc(N)cc3)C(C)/C=C/C=C/C=C/C=C/C=C/C=C/C=C/C(O[C@@H]3O[C@H](C)[C@@H](O)[C@H](N)[C@@H]3O)CC1O2 (stereo partly specified) [MEPARTRICIN]
- residual activity [1]: 95.55%
- residual activity [2]: 86.4%

SMILES: C[N+]1(C)CCCC(OC(=O)C(O)(c2ccccc2)c2ccccc2)C1.[Br-] (stereo unspecified) [MEPENZOLATE BROMIDE]
- residual activity [1]: 121.8%
- residual activity [2]: 106.1%

SMILES: Cc1ccccc1OCC(O)CO (stereo unspecified) [MEPHENESIN]
- residual activity [1]: 101%
- residual activity [2]: 107.5%

SMILES: Cc1cccc(C)c1NC(=O)C1CCCCN1C.Cl (stereo unspecified) [MEPIVACAINE HYDROCHLORIDE]
- residual activity [1]: 96.31%
- residual activity [2]: 96.16%

SMILES: Sc1ncnc2nc[nH]c12 [MERCAPTOPURINE ANHYDROUS]
- residual activity [1]: 107.8%
- residual activity [2]: 105.3%

SMILES: CC1=C2C(O)C(=O)OC3CC4C(C)(C)C(=O)C=C[C@]4(C)C(CC1)[C@]23C (stereo partly specified) [MEROGEDUNIN]
- residual activity [1]: 106.3%
- residual activity [2]: 83.06%

SMILES: O=S(=O)([O-])CCS.[Na+] [MESNA]
- residual activity [1]: 95.36%
- residual activity [2]: 97.81%

SMILES: CC(=O)Nc1cccc(O)c1 [METACETAMOL]
- residual activity [1]: 66.39%
- residual activity [2]: 79.17%

SMILES: COc1cc2c(cc1OC)C(=O)OC2 [METAMECONINE]
- residual activity [1]: 92.42%
- residual activity [2]: 95.41%

SMILES: CC(C)NCC(O)c1cc(O)cc(O)c1 (stereo unspecified) [METAPROTERENOL]
- residual activity [1]: 108.3%
- residual activity [2]: 111.7%

SMILES: Cc1cc(C)cc(OCC2CNC(=O)O2)c1 (stereo unspecified) [METAXALONE]
- residual activity [1]: 88.21%
- residual activity [2]: 93.18%

SMILES: CC(=O)OC(C)C[N+](C)(C)C.[Cl-] (stereo unspecified) [METHACHOLINE CHLORIDE]
- residual activity [1]: 86.62%
- residual activity [2]: 106.9%

SMILES: C=C1c2cccc(O)c2C(=O)C2=C(O)[C@]3(O)C(=O)C(C(N)=O)=C(O)[C@@H](N(C)C)[C@@H]3[C@@H](O)[C@H]12.Cl [METHACYCLINE HYDROCHLORIDE]
- residual activity [1]: 110.8%
- residual activity [2]: 110.7%

SMILES: COP(N)(=O)SC (stereo unspecified) [METHAMIDOPHOS]
- residual activity [1]: 96.41%
- residual activity [2]: 106%

SMILES: COS(C)(=O)=O [METHANESULFONIC ACID METHYL ESTER]
- residual activity [1]: 57.02%
- residual activity [2]: 79.48%

SMILES: CN(C)CCN(Cc1cccs1)c1ccccn1.Cl [METHAPYRILENE HYDROCHLORIDE]
- residual activity [1]: 83.03%
- residual activity [2]: 82.96%

SMILES: CC(=O)/N=c1/sc(S(N)(=O)=O)nn1C [METHAZOLAMIDE]
- residual activity [1]: 101.3%
- residual activity [2]: 93.09%

SMILES: C1N2CN3CN1CN(C2)C3 [METHENAMINE]
- residual activity [1]: 93.33%
- residual activity [2]: 72.89%

SMILES: Cn1cc[nH]c1=S [METHIMAZOLE]
- residual activity [1]: 111.7%
- residual activity [2]: 105.6%

SMILES: COc1ccccc1OCC(O)COC(N)=O (stereo unspecified) [METHOCARBAMOL]
- residual activity [1]: 101.2%
- residual activity [2]: 104.7%

SMILES: CNC(=O)ON=C(C)SC [METHOMYL]
- residual activity [1]: 80.5%
- residual activity [2]: 109.3%

SMILES: COc1ccc(OC)c(C(O)C(C)N)c1.Cl (stereo unspecified) [METHOXAMINE HYDROCHLORIDE]
- residual activity [1]: 80.21%
- residual activity [2]: 104.7%

SMILES: COc1c2occc2cc2ccc(=O)oc12 [METHOXSALEN]
- residual activity [1]: 102.5%
- residual activity [2]: 107.3%

SMILES: CON.Cl [METHOXYAMINE HYDROCHLORIDE]
- residual activity [1]: 118.4%
- residual activity [2]: 108.6%

SMILES: COc1ccc(C(c2ccc(OC)cc2)C(Cl)(Cl)Cl)cc1 [METHOXYCHLOR]
- residual activity [1]: 114%
- residual activity [2]: 102.3%

SMILES: COc1cc(C)c2c(=O)cc(-c3ccccc3)oc2c1 [METHOXYVONE]
- residual activity [1]: 231.1%
- residual activity [2]: 102.8%

SMILES: C[N+]1(C)[C@@H]2C[C@@H](OC(=O)[C@H](CO)c3ccccc3)C[C@H]1[C@@H]1O[C@@H]12.[Br-] [METHSCOPOLAMINE BROMIDE]
- residual activity [1]: 104.8%
- residual activity [2]: 92.61%

SMILES: COC(=O)c1cc(O)c(=O)c2c(O)c(O)ccc2c1 [METHYL 7-DESHYDROXYPYROGALLIN-4-CARBOXYLATE]
- residual activity [1]: 48.16%
- residual activity [2]: 80.24%

SMILES: COC(=O)c1cc(OC)c(=O)c2c(OC)c(OC)ccc2c1 [METHYL 7-DESOXYPURPUROGALLIN-7-CARBOXYLATE TRIMETHYL ETHER]
- residual activity [1]: 133.8%
- residual activity [2]: 100.1%
